Literature values, collected in article PMC12207880 (The Oncologist, 2025).
Read-outs that look alike come from different tables or passages of the source.

How the values were obtained:
advanced solid tumors = test system: advanced solid tumors; parameters: method as in earlier work
[1] = test system: patients treated with endocrine therapy combined with palbociclib
[2] = 200 mg BID
[3] = test system: patients treated with abemaciclib alone
[4] = sample size 33 (escalation phase), U.S.A
[5] = sample size 132, U.S.A, France, Netherland

In the case of `CC(=O)c1c(C)c2cnc(Nc3ccc(N4CCNCC4)cn3)nc2n(C2CCCC2)c1=O` [Palbociclib, palbociclib], the “Overall DCR” value (advanced solid tumors; sample size 37, U.S.A) is given as 35%, the “Overall ORR” value (advanced solid tumors; sample size 37, U.S.A) is given as 0% and the “grade 4 increased GGT” value ([1]; 1 of 135 patients) is given as 0.7%. The “grade 3 increased GGT” value ([1]; 3 of 135 patients) was 2.2% and the “overall incidence of increased GGT” value ([1]; 135 patients) was 4.4%.
In the case of `CCN1CCN(Cc2ccc(Nc3ncc(F)c(-c4cc(F)c5nc(C)n(C(C)C)c5c4)n3)nc2)CC1` [Abemaciclib, abemaciclib], the Ctrough ([2]; n=5) is listed as 210 (89%, n=5) ng/mL, the Ctrough ([2]; n=52) is listed as 197 (82%, n=52) ng/mL and the “Overall DCR” value (advanced solid tumors; sample size 25, China) is listed as 68.0%. The “Overall ORR” value (advanced solid tumors; sample size 25, China) was 8.0%, the “Overall DCR” value (advanced solid tumors; [4]) was 48.5% and the “Overall ORR” value (advanced solid tumors; [4]) was 0%. For the same compound, the “hypokalaemia of grade 3” value [3] was 2 patients and the “hypokalaemia of all grades” value ([3]; 34 of 130 patients) was 26.2%.
In the case of `CN(C)C(=O)c1cc2cnc(Nc3ccc(N4CCNCC4)cn3)nc2n1C1CCCC1` [Ribociclib, ribociclib], the “Overall DCR” value (advanced solid tumors; [5]) is given as 32.6% and the “Overall ORR” value (advanced solid tumors; [5]) is given as 2.3%.
